From ChEMBL document CHEMBL4616582, “Green recipes to quinoline: A review” (Eur J Med Chem, 2019)
In brackets after ≈: the same amount, converted by molar mass.

system: Bacillus subtilis; assay: Antibacterial activity against Bacillus subtilis MTCC 121 after 24 hrs by agar well diffusion method; type: functional; details: MTCC 121, 24 h

Compound | MIC
CC1(C)CC(=O)C2=C(C1)N(c1ccc(Cl)cc1)C(=O)C21C2=C(Nc3ccc([N+](=O)[O-])cc31)c1ccccc1C2=O (stereo not drawn) | 8 µg/mL (≈ 14.5 µM)
CCCCN1C(=O)C2(C3=C(Nc4ccc(Br)cc42)c2ccccc2C3=O)C2=C1CC(C)(C)CC2=O (stereo not drawn) | 8 µg/mL (≈ 15.1 µM)
O=C1CCCC2=C1C1(C(=O)N2c2ccccc2)C2=C(Nc3ccc([N+](=O)[O-])cc31)c1ccccc1C2=O (stereo not drawn) | 8 µg/mL (≈ 16.3 µM)
CC1(C)CC(=O)C2=C(C1)N(c1ccc(Br)cc1)C(=O)C21C2=C(Nc3ccccc31)c1ccccc1C2=O (stereo not drawn) | 8 µg/mL (≈ 14.5 µM)
COc1ccc(N2C(=O)C3(C4=C(Nc5ccc(Br)cc53)c3ccccc3C4=O)C3=C2CCCC3=O)cc1 (stereo not drawn) | 8 µg/mL (≈ 14.5 µM)
O=C1CCCC2=C1C1(C(=O)N2c2ccc(Cl)cc2)C2=C(Nc3ccc([N+](=O)[O-])cc31)c1ccccc1C2=O (stereo not drawn) | 8 µg/mL (≈ 15.3 µM)
Cc1ccc(N2C(=O)C3(C4=C(Nc5ccc(Br)cc53)c3ccccc3C4=O)C3=C2CCCC3=O)cc1 (stereo not drawn) | 8 µg/mL (≈ 14.9 µM)
CC1(C)CC(=O)C2=C(C1)N(c1ccccc1)C(=O)C21C2=C(Nc3ccccc31)c1ccccc1C2=O (stereo not drawn) | 8 µg/mL (≈ 16.9 µM)
Cc1ccc(N2C(=O)C3(C4=C(Nc5ccccc53)c3ccccc3C4=O)C3=C2CC(C)(C)CC3=O)cc1 (stereo not drawn) | 8 µg/mL (≈ 16.4 µM)
O=C1CCCC2=C1C1(C(=O)N2C2CCCCC2)C2=C(Nc3ccc(Br)cc31)c1ccccc1C2=O (stereo not drawn) | 8 µg/mL (≈ 15.1 µM)
CC1(C)CC(=O)C2=C(C1)N(c1ccco1)C(=O)C21C2=C(Nc3ccc([N+](=O)[O-])cc31)c1ccccc1C2=O (stereo not drawn) | 8 µg/mL (≈ 15.8 µM)
O=C1CCCC2=C1C1(C(=O)N2c2ccc(Br)cc2)C2=C(Nc3ccc([N+](=O)[O-])cc31)c1ccccc1C2=O (stereo not drawn) | 8 µg/mL (≈ 14.1 µM)
O=C1CCCC2=C1C1(C(=O)N2c2ccc(Br)cc2)C2=C(Nc3ccc(Br)cc31)c1ccccc1C2=O (stereo not drawn) | 8 µg/mL (≈ 13.3 µM)
Cc1ccc(N2C(=O)C3(C4=C(Nc5ccc([N+](=O)[O-])cc53)c3ccccc3C4=O)C3=C2CCCC3=O)cc1 (stereo not drawn) | 8 µg/mL (≈ 15.9 µM)
O=C1CCCC2=C1C1(C(=O)N2c2ccc(Cl)cc2)C2=C(Nc3ccccc31)c1ccccc1C2=O (stereo not drawn) | 8 µg/mL (≈ 16.7 µM)
O=C1CCCC2=C1C1(C(=O)N2c2ccccc2)C2=C(Nc3ccccc31)c1ccccc1C2=O (stereo not drawn) | 8 µg/mL (≈ 18 µM)
CC1(C)CC(=O)C2=C(C1)N(c1ccccc1)C(=O)C21C2=C(Nc3ccc(Br)cc31)c1ccccc1C2=O (stereo not drawn) | 8 µg/mL (≈ 14.5 µM)
O=C(O)c1cn(C2CC2)c2cc(N3CCNCC3)c(F)cc2c1=O [CIPROFLOXACIN] | 6.25 µg/mL (≈ 18.9 µM)
O=C1CCCC2=C1C1(C(=O)N2c2ccccc2)C2=C(Nc3ccc(Br)cc31)c1ccccc1C2=O (stereo not drawn) | 8 µg/mL (≈ 15.3 µM)
COc1ccc(N2C(=O)C3(C4=C(Nc5ccccc53)c3ccccc3C4=O)C3=C2CC(C)(C)CC3=O)cc1 (stereo not drawn) | 8 µg/mL (≈ 15.9 µM)
CC1(C)CC(=O)C2=C(C1)N(c1ccco1)C(=O)C21C2=C(Nc3ccc(Br)cc31)c1ccccc1C2=O (stereo not drawn) | 8 µg/mL (≈ 14.8 µM)
CC1(C)CC(=O)C2=C(C1)N(c1ccccc1)C(=O)C21C2=C(Nc3ccc([N+](=O)[O-])cc31)c1ccccc1C2=O (stereo not drawn) | 8 µg/mL (≈ 15.5 µM)
CC1(C)CC(=O)C2=C(C1)N(c1ccc(Cl)cc1)C(=O)C21C2=C(Nc3ccccc31)c1ccccc1C2=O (stereo not drawn) | 8 µg/mL (≈ 15.8 µM)

system: HepG2; assay: Cytotoxicity against human HepG2 cells assessed as reduction in cell viability by MTT assay; type: functional, cell-based; details: not given

Compound | IC50
CC(=O)c1ccc(F)cc1 | 0.984 µM
S=C=Nc1ccccc1 [PHENYLISOTHIOCYANATE] | 0.984 µM
CC(=O)c1ccccc1Cl | 0.984 µM
O=c1c2c(Cl)ccc(Cl)c2n(-c2ccccc2)c2ss/c(=N\c3ccccc3)c12 | 0.984 µM
CC(=O)c1ccc(Cl)cc1 | 0.984 µM
CC(=O)c1cc(Cl)ccc1Cl | 0.984 µM
CC(=O)c1ccc(Cl)c(Cl)c1 | 0.984 µM
Cc1ccc(Br)c2c(=O)c3/c(=N/c4ccccc4)ssc3n(-c3ccccc3)c12 | 0.984 µM
O=c1c2ccc(Cl)cc2n(-c2ccccc2)c2ss/c(=N\c3ccccc3)c12 | 0.984 µM
CC(=O)c1ccc(Br)cc1 | 0.984 µM
CC(=O)c1cc(C)ccc1Br | 0.984 µM
O=c1c2ccc(F)cc2n(-c2ccccc2)c2ss/c(=N\c3ccccc3)c12 | 0.984 µM
O=c1c2cc(Cl)c(Cl)cc2n(-c2ccccc2)c2ss/c(=N\c3ccccc3)c12 | 0.984 µM
CC(=O)c1ccccc1 [ACETOPHENONE] | 0.984 µM
O=c1c2c(Cl)cc(Cl)c(F)c2n(-c2ccccc2)c2ss/c(=N\c3ccccc3)c12 | 0.984 µM
CC(C)=CCC[C@]1(C)C=Cc2c(O)c3c(c(CC=C(C)C)c2O1)O[C@]12C(=C[C@@H]4C[C@H]1C(C)(C)O[C@@]2(C/C=C(/C)C(=O)O)C4=O)C3=O [GAMBOGIC ACID] | 1.55 µM

system: B16-F10; assay: Cytotoxicity against mouse B16F10 cells assessed as reduction in cell viability; type: functional, cell-based; details: not given

Compound | IC50
O=Cc1ccccc1 [BENZALDEHYDE] | 70.7 µM
O=Cc1c(Cl)cccc1Cl | 70.7 µM
O=Cc1ccc(Br)cc1 | 70.7 µM
O=c1oc2ccccc2c2nc3c(ccc4cc[nH]c43)c(-c3ccccc3Br)c12 | 70.7 µM
O=c1oc2ccccc2c2nc3c(ccc4cc[nH]c43)c(-c3ccc(O)cc3)c12 | 70.7 µM
O=c1oc2ccccc2c2nc3c(ccc4cc[nH]c43)c(-c3ccc(Br)cc3)c12 | 70.7 µM
O=Cc1cccc(Br)c1 | 70.7 µM
O=Cc1ccc(F)cc1 | 70.7 µM
O=c1oc2ccccc2c2nc3c(ccc4cc[nH]c43)c(-c3ccc(Cl)cc3Cl)c12 | 70.7 µM
O=Cc1ccc(C(F)(F)F)cc1 | 70.7 µM
O=c1oc2ccccc2c2nc3c(ccc4cc[nH]c43)c(-c3ccccc3)c12 | 70.7 µM
O=c1oc2ccccc2c2nc3c(ccc4cc[nH]c43)c(-c3c(Cl)cccc3Cl)c12 | 70.7 µM
O=c1oc2ccccc2c2nc3c(ccc4cc[nH]c43)c(-c3ccc(C(F)(F)F)cc3)c12 | 70.7 µM
O=c1oc2ccccc2c2nc3c(ccc4cc[nH]c43)c(-c3cccnc3Cl)c12 | 70.7 µM
O=c1cc(O)c2cc(Br)ccc2o1 | 70.7 µM
O=Cc1ccccc1Br | 70.7 µM
O=c1cc(O)c2cc(Cl)ccc2o1 | 70.7 µM
O=c1cc(O)c2cc(F)ccc2o1 | 70.7 µM
Cc1ccc(C=O)cc1 | 70.7 µM
O=c1oc2ccccc2c2nc3c(ccc4cc[nH]c43)c(-c3ccc([N+](=O)[O-])cc3)c12 | 70.7 µM

Compound | IC50
O=c1oc2ccccc2c2nc3c(ccc4cc[nH]c43)c(-c3cccc4ccccc34)c12 | 70.7 µM
O=Cc1cccc2ccccc12 | 70.7 µM
O=Cc1ccc([N+](=O)[O-])cc1 | 70.7 µM
O=c1oc2ccccc2c2nc3c(ccc4cc[nH]c43)c(-c3ccc(Cl)cc3)c12 | 70.7 µM
Nc1cccc2cc[nH]c12 | 70.7 µM
Cc1ccc(-c2c3ccc4cc[nH]c4c3nc3c2c(=O)oc2ccccc23)cc1 | 70.7 µM
O=c1oc2ccccc2c2nc3c(ccc4cc[nH]c43)c(-c3ccc(F)cc3)c12 | 70.7 µM
O=c1oc2ccccc2c2nc3c(ccc4cc[nH]c43)c(-c3ccccn3)c12 | 70.7 µM
COc1ccc(C=O)cc1 [ANISALDEHYDE] | 70.7 µM
O=c1oc2ccccc2c2nc3c(ccc4cc[nH]c43)c(-c3cccc(Cl)c3Cl)c12 | 70.7 µM
O=c1cc(O)c2ccccc2o1 [4-HYDROXYCOUMARINS] | 70.7 µM
COc1ccc(-c2c3ccc4cc[nH]c4c3nc3c2c(=O)oc2ccccc23)cc1 | 70.7 µM
O=Cc1ccc(O)cc1 [4-HYDROXYBENZALDEHYDE] | 70.7 µM
O=Cc1ccc(Cl)cc1 | 70.7 µM
O=c1oc2ccccc2c2nc3c(ccc4cc[nH]c43)c(-c3cccc(Br)c3)c12 | 70.7 µM
O=Cc1ccccn1 [2-PYRIDINECARBOXALDEHYDE] | 70.7 µM
O=Cc1cccc(Cl)c1Cl | 70.7 µM
O=Cc1cccnc1Cl [2-CHLORONICOTINALDEHYDE] | 70.7 µM
O=Cc1ccc(Cl)cc1Cl | 70.7 µM
